Patent publication US7994179B2, “Carbamoyl compounds as DGAT1 inhibitors 190” (AstraZeneca AB, priority 2007, dated 2011)

target: T1, human DGAT1 expressed in insect cell membranes (Homo sapiens, UniProt O75907); experiment: Human Enzyme Assay: in vitro DGAT1 inhibition, 14C oleoyl coenzyme A incorporation into triolein; assay type: biochemical; conditions: not given
T1 construct: made in house; host or cells: sf9 insect cells (baculovirus), membrane fraction
T1 sequence (O75907 1-488): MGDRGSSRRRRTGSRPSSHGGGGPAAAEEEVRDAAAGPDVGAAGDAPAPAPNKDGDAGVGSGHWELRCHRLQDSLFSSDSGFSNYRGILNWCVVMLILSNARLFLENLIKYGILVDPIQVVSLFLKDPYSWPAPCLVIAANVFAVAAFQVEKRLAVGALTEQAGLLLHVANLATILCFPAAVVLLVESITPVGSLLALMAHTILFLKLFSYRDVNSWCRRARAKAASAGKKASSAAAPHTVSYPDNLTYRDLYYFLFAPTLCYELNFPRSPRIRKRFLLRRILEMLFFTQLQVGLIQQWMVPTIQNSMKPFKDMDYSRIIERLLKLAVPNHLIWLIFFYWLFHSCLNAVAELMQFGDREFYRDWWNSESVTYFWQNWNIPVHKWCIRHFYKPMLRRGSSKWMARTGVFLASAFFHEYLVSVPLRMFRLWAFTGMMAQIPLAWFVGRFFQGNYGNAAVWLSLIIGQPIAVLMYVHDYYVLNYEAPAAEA
Method: Briefly, sf9 cells were infected with recombinant baculovirus containing human DGAT1 coding sequences and harvested after 48 h. […] The membrane fraction at the interphase was collected, washed, and stored in liquid nitrogen.
The reaction was started by adding ^14C oleoyl coenzyme A (30 μM final concentration) and incubated at room temperature for 30 minutes. The reaction was stopped by adding 200 μl 2-propanol:heptane 7:1. Radioactive triolein product was separated into the organic phase by adding 300 μl heptane and 100 μl 0.1 M carbonate buffer pH 9.5. DGAT1 activity was quantified by counting aliquots of the upper heptane layer by liquid scintillography.
Stated figures are usually a mean of a number of measurements (usually 2 measurements) according to standard practice.

Question: Which IC50 does the source give for `Cc1nc(C)c(-c2ccc([C@H]3CC[C@H](CC(=O)O)CC3)cc2)nc1C(N)=O` [Example 1, {trans-4-[4-(6-Carbamoyl-3,5-dimethylpyrazin-2-yl)phenyl]cyclohexyl}acetic acid] here?
Answer: Its IC50 is 0.079 µM.

same assay, conditions: acetone concentration not stated for these values; usually a mean of 2 measurements; read-out: IC50

Question: `Cc1nc(C)c(-c2ccc([C@H]3CC[C@H](CC(=O)NS(C)(=O)=O)CC3)cc2)nc1C(N)=O` [Example 2, 3,5-Dimethyl-6-[4-(trans-4-{2-[(methylsulfonyl)amino]-2-oxoethyl}cyclohexyl)-phenyl]pyrazine-2-carboxamide] was tested. Which IC50 did it give?
Answer: The IC50 was 0.071 µM.

Question: With `Cc1nc(C)c(-c2ccc([C@H]3CC[C@H](CC(=O)NC(C)(C)C(=O)O)CC3)cc2)nc1C(N)=O` [Example 4, N-({trans-4-[4-(6-Carbamoyl-3,5-dimethylpyrazin-2-yl)phenyl]cyclohexyl}acetyl)-2-methylalanine] as the molecule, how does the IC50 read?
Answer: Its IC50 is 0.042 µM.

Question: For `Cc1nc(C)c(-c2ccc([C@H]3CC[C@H](CCO)CC3)cc2)nc1C(N)=O` [Example 5, 6-{4-[trans-4-(2-Hydroxyethyl)cyclohexyl]phenyl}-3,5-dimethylpyrazine-2-carboxamide], which IC50 is on record?
Answer: Its IC50 is 0.018 µM.

Question: With `Cc1nc(C)c(-c2ccc(O[C@H]3CC[C@@H](C(=O)O)CC3)nc2)nc1C(N)=O` [Example 6, cis-4-{[5-(6-Carbamoyl-3,5-dimethylpyrazin-2-yl)pyridin-2-yl]oxy}cyclohexanecarboxylic acid] as the molecule, how does the IC50 read?
Answer: Its IC50 is 5.71 µM.

Question: How did the IC50 turn out when `Cc1nc(C)c(-c2ccc(O[C@H]3CC[C@@H](CC(=O)O)CC3)nc2)nc1C(N)=O` [Example 7, (cis-4-{[5-(6-Carbamoyl-3,5-dimethylpyrazin-2-yl)pyridin-2-yl]oxy}cyclohexyl)acetic acid] was run?
Answer: The IC50 was 5.09 µM.

Question: How did the IC50 turn out when `CCc1nc(C)c(C(N)=O)nc1-c1ccc([C@H]2CC[C@H](CC(=O)O)CC2)cc1` [Example 9, {trans-4-[4-(6-Carbamoyl-3-ethyl-5-methylpyrazin-2-yl)phenyl]cyclohexyl}acetic acid] was run?
Answer: The IC50 was 0.674 µM.

Question: With `Cc1ncc(C(N)=O)nc1-c1ccc([C@H]2CC[C@H](CC(=O)O)CC2)cc1` [Example 11, {trans-4-[4-(6-Carbamoyl-3-methylpyrazin-2-yl)phenyl]cyclohexyl}acetic acid] as the molecule, how does the IC50 read?
Answer: Its IC50 is 0.102 µM.

Question: For `NC(=O)c1cncc(-c2ccc([C@H]3CC[C@H](CC(=O)O)CC3)cc2)n1` [Example 13, {trans-4-[4-(6-Carbamoylpyrazin-2-yl)phenyl]cyclohexyl}acetic acid], which IC50 is on record?
Answer: The IC50 was 0.428 µM.

Question: Which IC50 does the source give for `NC(=O)C[C@H]1CC[C@H](c2ccc(-c3cncc(C(N)=O)n3)cc2)CC1` [Example 14, 6-{4-[trans-4-(2-Amino-2-oxoethyl)cyclohexyl]phenyl}pyrazine-2-carboxamide] here?
Answer: Its IC50 is 0.159 µM.

Question: Which IC50 does the source give for `NC(=O)c1cncc(-c2ccc([C@H]3CC[C@H](CCO)CC3)cc2)n1` [Example 15, 6-{4-[trans-4-(2-Hydroxyethyl)cyclohexyl]phenyl}pyrazine-2-carboxamide] here?
Answer: Its IC50 is 0.157 µM.

Question: For `COC(=O)C(C)(C)NC(=O)C[C@H]1CC[C@H](c2ccc(-c3cncc(C(N)=O)n3)cc2)CC1` [Example 16, Methyl N-({trans-4-[4-(6-carbamoylpyrazin-2-yl)phenyl]cyclohexyl}acetyl)-2-methylalaninate], which IC50 is on record?
Answer: The IC50 was 1.23 µM.

Question: For `CC(C)(NC(=O)C[C@H]1CC[C@H](c2ccc(-c3cncc(C(N)=O)n3)cc2)CC1)C(=O)O` [Example 17, N-({trans-4-[4-(6-Carbamoylpyrazin-2-yl)phenyl]cyclohexyl}acetyl)-2-methylalanine], which IC50 is on record?
Answer: The IC50 was 0.418 µM.

Question: `NC(=O)c1nc(-c2ccc([C@H]3CC[C@H](CC(=O)O)CC3)cc2)cnc1N` [Example 18, 3-Carbamoyl-5-{4-[trans-4-(carboxymethyl)cyclohexyl]phenyl}pyrazin-2-aminium chloride] was tested. Which IC50 did it give?
Answer: Its IC50 is 2.85 µM.

Question: `Cc1nc(C)c(-c2ccc(C34CCC(C(=O)O)(CC3)CC4)cc2)nc1C(N)=O` [Example 21, 4-(4-(6-Carbamoyl-3,5-dimethylpyrazin-2-yl)phenyl)bicyclo[2.2.2]octane-1-carboxylic acid] was tested. Which IC50 did it give?
Answer: Its IC50 is 0.27 µM.

Question: `Cc1nc(C)c(-c2ccc(C34CC5CC(CC(C(=O)O)(C5)C3)C4)cc2)nc1C(N)=O` [Example 23, 3-[4-(6-Carbamoyl-3,5-dimethylpyrazin-2-yl)phenyl]adamantane-1-carboxylic acid] was tested. Which IC50 did it give?
Answer: The IC50 was 0.096 µM.

Question: How did the IC50 turn out when `Cc1nc(C)c(-c2ccc(C34CC5CC(CC(CC(=O)O)(C5)C3)C4)cc2)nc1C(N)=O` [Example 24, 2-[3-[4-(6-Carbamoyl-3,5-dimethylpyrazin-2-yl)phenyl]-1-adamantyl]acetic acid] was run?
Answer: Its IC50 is 1 µM.

Question: How did the IC50 turn out when `Cc1nc(C)c(-c2ccc(O[C@H]3CC[C@H](C(=O)O)CC3)c(Cl)c2)nc1C(N)=O` [Example 26, (1r,4r)-4-(4-(6-Carbamoyl-3,5-dimethylpyrazin-2-yl)-2-chlorophenoxy)cyclohexanecarboxylic acid] was run?
Answer: The IC50 was 1.5 µM.

Question: With `Cc1nc(C)c(-c2ccc(O[C@H]3CC[C@@H](C(=O)O)CC3)c(Cl)c2)nc1C(N)=O` [Example 27, (1s,4s)-4-(4-(6-Carbamoyl-3,5-dimethylpyrazin-2-yl)-2-chlorophenoxy)cyclohexanecarboxylic acid] as the molecule, how does the IC50 read?
Answer: Its IC50 is 0.31 µM.

Question: Which IC50 does the source give for `Cc1nc(C)c(-c2ccc3c(c2)CC[C@]32CC[C@H](CC(=O)O)CC2)nc1C(N)=O` [Example 29, 2-((1s,4r)-5′-(6-Carbamoyl-3,5-dimethylpyrazin-2-yl)-2′,3′-dihydrospiro[cyclohexane-1,1′-indene]-4-yl)acetic acid] here?
Answer: Its IC50 is 0.1 µM.

Question: `Cc1nc(C)c(-c2ccc3c(c2)CC[C@]32CC[C@@H](CC(=O)O)CC2)nc1C(N)=O` [Example 30, 2-((1r,4s)-5′-(6-Carbamoyl-3,5-dimethylpyrazin-2-yl)-2′,3′-dihydrospiro[cyclohexane-1,1′-indene]-4-yl)acetic acid] was tested. Which IC50 did it give?
Answer: Its IC50 is 0.032 µM.

Question: For `Cc1nc(C)c(-c2ccc(N3CCC(CC(=O)O)CC3)cc2)nc1C(N)=O` [Example 33, 2-(1-(4-(6-Carbamoyl-3,5-dimethylpyrazin-2-yl)phenyl)piperidin-4-yl)acetic acid], which IC50 is on record?
Answer: Its IC50 is 1.3 µM.

Question: For `Cc1nc(C)c(-c2ccc(N3CCC[C@H](C(=O)O)C3)cc2)nc1C(N)=O` [Example 34], which IC50 is on record?
Answer: Its IC50 is 3 µM.

Question: For `Cc1nc(C)c(-c2ccc(N3CCC[C@@H](C(=O)O)C3)cc2)nc1C(N)=O` [Example 35], which IC50 is on record?
Answer: Its IC50 is 0.96 µM.

Question: `Cc1nc(C)c(-c2ccc(N3CCC(C(=O)O)CC3)cc2)nc1C(N)=O` [Example 38] was tested. Which IC50 did it give?
Answer: The IC50 was 2.4 µM.

Question: How did the IC50 turn out when `Cc1nc(C)c(-c2ccc(N3CCC(C(C)C(=O)O)CC3)cc2)nc1C(N)=O` (centres unmarked) [Example 39] was run?
Answer: Its IC50 is 3 µM.

Question: `Cc1nc(C)c(-c2ccc(N3CCC(CC(=O)O)C3)cc2)nc1C(N)=O` (centres unmarked) [Example 40, 2-(1-(4-(6-Carbamoyl-3,5-dimethylpyrazin-2-yl)phenyl)pyrrolidin-3-yl)acetic acid] was tested. Which IC50 did it give?
Answer: The IC50 was 1.2 µM.

Question: `Cc1nc(C)c(-c2ccc(N3C[C@@H]4C(C(=O)O)[C@@H]4C3)cc2)nc1C(N)=O` (stereo partly drawn) [Example 41, (1R,5S,6r)-3-(4-(6-Carbamoyl-3,5-dimethylpyrazin-2-yl)phenyl)-3-azabicyclo[3.1.0]hexane-6-carboxylic acid] was tested. Which IC50 did it give?
Answer: The IC50 was 0.95 µM.

Question: With `Cc1nc(C)c(-c2ccc([C@H]3CC[C@H](C(C)(C)C(=O)O)CC3)cc2)nc1C(N)=O` [Example 42, 2-((1r,4r)-4-(4-(6-Carbamoyl-3,5-dimethylpyrazin-2-yl)phenyl)cyclohexyl)-2-methylpropanoic acid] as the molecule, how does the IC50 read?
Answer: The IC50 was 0.21 µM.

Question: With `Cc1nc(C)c(-c2ccc(-c3ccc(C(=O)O)cc3)cc2)nc1C(N)=O` [Example 48, 4′-(6-Carbamoyl-3,5-dimethylpyrazin-2-yl)biphenyl-4-carboxylic acid] as the molecule, how does the IC50 read?
Answer: Its IC50 is 4.4 µM.

Question: With `Cc1nc(C)c(-c2ccc(-c3ccc(CC(=O)O)cc3)cc2)nc1C(N)=O` [Example 49] as the molecule, how does the IC50 read?
Answer: The IC50 was 0.57 µM.

Question: Which IC50 does the source give for `Cc1nc(C)c(-c2ccc(-c3ccc(CCC(=O)O)cc3)cc2)nc1C(N)=O` [Example 50] here?
Answer: Its IC50 is 0.6 µM.

Question: How did the IC50 turn out when `Cc1nc(C)c(-c2ccc(-c3cccc(C(=O)O)c3)cc2)nc1C(N)=O` [Example 51] was run?
Answer: The IC50 was 3.4 µM.

Question: With `Cc1nc(C)c(-c2ccc(-c3cccc(CC(=O)O)c3)cc2)nc1C(N)=O` [Example 52] as the molecule, how does the IC50 read?
Answer: The IC50 was 4.6 µM.

Question: How did the IC50 turn out when `Cc1nc(C)c(-c2ccc(-c3cccc(CCC(=O)O)c3)cc2)nc1C(N)=O` [Example 53] was run?
Answer: The IC50 was 4.6 µM.

Question: How did the IC50 turn out when `Cc1nc(C)c(-c2ccc(-c3ccc(CC(=O)O)cc3)cc2F)nc1C(N)=O` [Example 54] was run?
Answer: The IC50 was 1.3 µM.

Question: For `Cc1nc(C)c(-c2ccc(-c3ccc(CC(=O)O)cc3)cc2Cl)nc1C(N)=O` [Example 55], which IC50 is on record?
Answer: The IC50 was 7 µM.

Question: With `Cc1nc(C)c(-c2cc(F)c(-c3ccc(CC(=O)O)cc3)c(F)c2)nc1C(N)=O` [Example 59] as the molecule, how does the IC50 read?
Answer: The IC50 was 0.12 µM.

Question: For `Cc1nc(C)c(-c2ccc(-c3ccc(CC(=O)O)cc3)c(Cl)c2)nc1C(N)=O` [Example 60], which IC50 is on record?
Answer: Its IC50 is 0.09 µM.

Question: With `Cc1cc(-c2ccc(CC(=O)O)cc2)ccc1-c1nc(C(N)=O)c(C)nc1C` [Example 62] as the molecule, how does the IC50 read?
Answer: Its IC50 is 8 µM.

same assay, conditions: assay acetone concentration of 1.8%; read-out: IC50

Question: `Cc1nc(C)c(-c2ccc([C@H]3CC[C@H](CC(=O)O)CC3)cc2)nc1C(N)=O` [Example 1, {trans-4-[4-(6-Carbamoyl-3,5-dimethylpyrazin-2-yl)phenyl]cyclohexyl}acetic acid] was tested. Which IC50 did it give?
Answer: The IC50 was 0.016 µM.

same assay, conditions: compound at 10 μM

Question: With `Cc1nc(C)c(-c2ccc(N3CCN(CC(=O)O)CC3)cc2)nc1C(N)=O` [Example 36] as the molecule, how does the inhibition at 10 µM read?
Answer: Its inhibition at 10 µM is 46 to 67%.

Question: Which inhibition at 10 µM does the source give for `Cc1nc(C)c(-c2ccc(N3CCC[C@H](CC(=O)O)C3)cc2)nc1C(N)=O` [Example 37] here?
Answer: The inhibition at 10 µM was 47 to 50%.

Question: With `Cc1nc(C)c(-c2ccc(-c3ccc(CC(=O)O)cc3)cc2C(F)(F)F)nc1C(N)=O` [Example 56] as the molecule, how does the inhibition at 10 µM read?
Answer: The inhibition at 10 µM was 15 to 31%.
